Laboratory results published in patent US20260028352A1, “MACROCYCLIC IMIDAZO [1,2-B] PYRIDAZINE DERIVATIVE, PREPARATION METHOD THEREFOR, AND USE THEREOF” (SUZHOU LANGRUI BIOPHARMACEUTICAL CO., LTD., priority 2022, published 2026).

What was measured:
[1] = molecular target: TRKA^WT kinase (Homo sapiens (Human), UniProt P04629); assay: Inhibitory activity against TRKA WT kinase (Caliper mobility shift); format: biochemical; details: in vitro kinase assay
Description: (§1) Kinase Assay Process: 1× Kinase buffer was prepared. […] The compounds were serially diluted into 10 concentrations ([…], 0.15, and 0.05 nM) using a Precision 3-fold dilution method. By using the Echo550 liquid handler, 250 nL of the 100-fold final concentration compound was transferred to an OptiPlate-384F plate. a 2.5× final concentration kinase solution was prepared using 1× Kinase buffer. 10 μL of the 2.5× final concentration kinase solution was added to the compound wells and the positive control wells, and 10 μL of 1× Kinase buffer was added to the negative control wells. The plate was centrifuged at 1000 rpm for 30 seconds, vortexed for mixing, and then incubated at room temperature for 10 minutes. A mixture of 5/3× final concentration of ATP and Kinase Substrate 22 was prepared using 1× Kinase buffer. 15 μL of the mixture of the 5/3× final concentration ATP and the substrate was added to initiate the reaction, the 384-well plate was centrifuged at 1000 rpm for 30 seconds, vortexed for mixing, and incubated at room temperature for the required time. 30 μL of the termination solution was added to stop the kinase reaction, the plate was centrifuged at 1000 rpm for 30 seconds, and vortexed for mixing. The conversion rate was measured using the Caliper EZ Reader.
(§2) Data Analysis: the inhibition rate was calculated as follows:
(§3) % Inhibition=(Conversion %_max−conversion %_sample)÷(Conversion %_max−conversion %_min)×100
(§4) Conversion %_sample is the conversion rate reading for the sample; Conversion %_min is the average value of the negative control wells, representing the conversion rate for wells without enzyme activity: Conversion %_max is the average value of the positive control wells, representing the conversion rate for wells without compound inhibition. A dose-response curve was fitted using the log concentration of the compound as the X-axis and the percentage inhibition as the Y-axis. The log(inhibitor) vs. response-variable slope of the GraphPad Prism 5 software was used to fit the dose-response curve, and the IC50 value for each compound was obtained. The calculation formula is:
(§5) Y=Bottom+(Top−Bottom)/(1+10^((Log IC50−X)*HillSlope)).
(§6) wherein X represents the concentration of the compound to be tested; Y represents the inhibition rate at the concentration X: Top refers to the maximum response: Bottom refers to the baseline response; HillSlope refers to the slope of the curve (i.e., the gradient).

[2] = tested on: Ba/F3-TPM3-NTRK1-G667C cells; assay: Growth inhibition of Ba/F3-TPM3-NTRK1-G667C cells (Cell Titer-Glo); format: cell-based; details: 72 hours, CTG; read-out: inhibitory activity IC50 Ba/F3-TPM3-NTRK1-G667C
Method in brief: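 Ba/F3 cells were exposed for 72 hours to serially DMSO-diluted compound at a top final concentration of 10 μM. Viability was read by Cell Titer-Glo luminescence after the plate equilibrated 30 min at room temperature and was then shaken 1 hour in the dark at room temperature.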

[3] = molecular target: TRKA^F589L kinase (Homo sapiens (Human), UniProt P04629, F589L); assay: Inhibitory activity against TRKA(F589L) kinase (Caliper mobility shift); format: biochemical; details: in vitro kinase assay
Sequence of TRKA^F589L kinase (P04629 33-796 F589L): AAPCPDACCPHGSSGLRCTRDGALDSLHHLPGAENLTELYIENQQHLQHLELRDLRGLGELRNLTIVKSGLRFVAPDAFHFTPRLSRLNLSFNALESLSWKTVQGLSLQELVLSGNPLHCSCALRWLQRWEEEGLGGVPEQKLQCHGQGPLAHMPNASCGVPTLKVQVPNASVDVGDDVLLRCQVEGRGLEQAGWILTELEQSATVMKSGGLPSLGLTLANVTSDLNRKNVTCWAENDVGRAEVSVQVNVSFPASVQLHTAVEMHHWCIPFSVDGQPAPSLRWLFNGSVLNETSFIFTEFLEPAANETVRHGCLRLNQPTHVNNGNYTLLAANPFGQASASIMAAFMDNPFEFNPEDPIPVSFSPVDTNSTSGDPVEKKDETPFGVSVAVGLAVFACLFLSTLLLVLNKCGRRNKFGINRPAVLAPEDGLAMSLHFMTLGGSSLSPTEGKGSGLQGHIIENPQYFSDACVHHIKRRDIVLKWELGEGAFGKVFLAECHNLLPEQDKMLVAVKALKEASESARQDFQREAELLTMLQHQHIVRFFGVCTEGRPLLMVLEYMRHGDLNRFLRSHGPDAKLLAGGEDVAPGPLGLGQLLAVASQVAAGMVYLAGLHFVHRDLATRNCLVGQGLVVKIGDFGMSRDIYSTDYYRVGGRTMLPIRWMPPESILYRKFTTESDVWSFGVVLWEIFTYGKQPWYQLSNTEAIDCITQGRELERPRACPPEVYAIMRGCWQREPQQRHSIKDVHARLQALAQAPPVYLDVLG
Description: as §1, §2, §3, §4, §5, §6

[4] = tested on: Ba/F3-TPM3-NTRK1-G595R cells; assay: Growth inhibition of Ba/F3-TPM3-NTRK1-G595R cells (Cell Titer-Glo); format: cell-based; details: 72 hours, CTG; read-out: inhibitory activity IC50 Ba/F3-TPM3-NTRK1-G595R
Description: (§7) Then the solutions were subjected to a gradient dilution with DMSO: a clean, sterile V-bottom 96-well microplate was placed in the biological safety cabinet. First, 4 μL of DMSO was added to well B2 and 10 μL of DMSO was added to wells B3-B11 respectively; Next, 6 μL of the 10 mM solution was added to well B2. The microplate was pipetted up and down 10 times for mixing. […] Mixing was performed by pipetting up and down 10 times. The solution was diluted in order until well B10. only DMSO was added to well B11 (no compound).
(§8) 6× Compound Solution Preparation (6-fold dilution, × represents dilution factor): (Initial final concentration: 10 μM), a clean, sterile V-bottom 96-well microplate was placed in the biological safety cabinet. 99 μL of cell culture medium was added to each well from B2 to G11. By using a 12-channel pipettor, 1 μL of the compound solution prepared in the previous step was added into the corresponding wells. The solutions were pipetted up and down 10 times to mix the solutions. The highest concentration of compound in this step was 60 μM.
(§9) Treatment of Cells: the above-prepared cell culture plate was taken out of the incubator. 20 μL of compound solution from each well was added to the corresponding cell culture wells. The lowest pipetting speed was used and touching the bottom of the plate was avoided. The culture plate was gently shaked to mix the compound solution, then the plate was returned to the incubator for further culture for 72 hours.
(§10) The highest treatment concentration of the compound was 10 μM. After 72 hours of treatment, the Cell Titer-Glo (CTG) assay was performed. First, the cell culture plate was removed from the CO2 incubator and allowed to stand at room temperature for 30 minutes to ensure uniform temperature of the plate. The pre-prepared Cell Titer-Glo reagent (following the manufacturer's instructions) was taken and allowed to stand at room temperature to thaw. 60 μL of Cell Titer-Glo reagent was added to each well containing cells. The cells were incubated on a horizontal shaker in a dark place at 225 rpm for 1 hour at room temperature. Then, a Tecan Spark microplate reader was used to read the plate using chemiluminescence according to the manufacturer's instructions.

[5] = tested on: Ba/F3-TPM3-NTRK1-WT cells; assay: Growth inhibition of Ba/F3-TPM3-NTRK1-WT cells (Cell Titer-Glo); format: cell-based; details: 72 hours, CTG; read-out: inhibitory activity IC50 Ba/F3-TPM3-NTRK1-WT
Description: as §7, §8, §9, §10

Sequence of TRKA^WT kinase (P04629 33-796): as the sequence (P04629 33-796 F589L) above, with L557F counted along it

Row | IC50 [1] [nM] | IC50 [2] [nM] | IC50 [3] [nM] | IC50 [4] [nM] | IC50 [5] [nM] | Compound
1 | < 3 | < 100 | < 5 | – | – | C[C@H]1Nc2ccc3ncc(n3n2)-c2cc(ccn2)COc2ncccc21 [Example I-20, (R)-(E)-6-methyl-4-oxa-7-aza-1(3,6)-imidazo[1,2-b]pyridazina-2(2,4), 5(2,3)-dipyridinacycloheptaphane]
2 | < 3 | < 100 | < 5 | – | – | C[C@H]1Cc2ccnc(n2)-c2cnc3ccc(nn23)N2CCC[C@@H]2c2cc(F)cnc2O1 [Example I-95, (32R,6S,E)-4-fluoro-6-methyl-5-oxa-2(3,6)-imidazo[1,2-b]pyridazina-1(2,4)-pyrimidina-4(3,2)-pyridina-3(1,2)-pyrrolidinacycloheptaphane]
3 | < 3 | < 100 | < 5 | – | – | Fc1ccc2c(c1)[C@H]1CCCN1c1ccc3ncc(n3n1)-c1cc(ccn1)CO2 [Example I-49, (14bR,E)-13-fluoro-14b,15,16,17-tetrahydro-9H-1,19-etheno-4,8-(metheno)benzo[b]imidazo[1,5-h]pyrrolo[2,1-d][1]oxa[5,7,8,11]tetraazacyclopentadecine]
4 | < 3 | < 100 | < 5 | – | – | C[C@@H]1Cc2cc(ncn2)-c2cnc3ccc(nn23)N2CCC[C@@H]2c2cc(F)ccc2O1 [Example I-97, (3^2R,6R,E)-4^5-fluoro-6-methyl-5-oxa-2(3,6)-imidazo[1,2-b]pyridazina-1(4,6)-pyrimidina-3(1,2)-pyrrolidina-4(1,2)-benzenacycloheptaphane]
5 | < 3 | < 100 | < 5 | – | – | C[C@H]1Nc2ccc3ncc(n3n2)-c2cc(ncn2)COc2ccccc21 [Example I-26, (R)-(E)-6-methyl-4-oxa-7-aza-1(3,6)-imidazo[1,2-b]pyridazina-2(4,6)-pyrimidina-5(1,2)-benzenacycloheptaphane]
6 | < 3 | < 100 | < 5 | – | – | C[C@H]1Nc2ccc3ncc(n3n2)-c2cc(cnn2)CCOc2ncc(F)cc21 [Example I-89, (4R,E)-5^5-fluoro-4-methyl-6-oxa-3-aza-2(3,6)-imidazo[1,2-b]pyridazina-1(3,5)-pyridazina-5(3,2)-pyridinacyclooctaphane]
7 | < 3 | < 100 | < 5 | – | – | C[C@H]1Nc2ccc3ncc(n3n2)-c2cc(ccn2)OCc2ccc(F)cc21 [Example I-30, (R)-(E)-5^4-fluoro-6-methyl-3-oxa-7-aza-1(3,6)-imidazo[1,2-b]pyridazina-2(2,4)-pyridina-5(1,2)-benzenacycloheptaphane]
8 | < 3 | < 100 | < 5 | – | – | C[C@H]1Nc2ccc3ncc(n3n2)-c2cc(ccn2)COc2ccccc21 [Example I-18, (R)-(E)-6-methyl-4-oxa-7-aza-1(3,6)-imidazo[1,2-b]pyridazine-2(2,4)-pyridina-5(1,2)-benzenacycloheptaphane]
9 | < 3 | < 100 | < 5 | – | – | C[C@H]1Nc2ccc3ncc(n3n2)-c2cc(ccn2)COc2c(F)cc(F)cc21 [Example I-16, (R)-(E)-5^4,5^6-difluoro-6-methyl-4-oxa-7-aza-1(3,6)-imidazo[1,2-b]pyridazine-2(2,4)-pyridina-5(1,2)-benzenacycloheptaphane]
10 | < 3 | < 100 | < 5 | – | – | Fc1ccc2c(c1)[C@H]1CCCN1c1ccc3ncc(n3n1)-c1cc(ncn1)CCO2 [Example I-69, (3^2R,E)-4^5-fluoro-5-oxa-2(3,6)-imidazo[1,2-b]pyridazina-1(4,6)-pyrimidina-3(1,2)-pyrrolidina-4(1,2)-benzenacycloheptaphane]
11 | < 3 | < 100 | < 5 | – | – | (R)-(E)-4-methyl-6-oxa-3-aza-2(3,6)-imidazo[1,2-b]pyridazina-1(4,6)-pyrimidina-5(1,2)-benzenacyclooctaphane [Example I-32]
12 | < 3 | < 100 | < 5 | – | – | C[C@H]1Nc2ccc3ncc(n3n2)-c2cc(ccn2)CCOc2ccccc21 [Example I-28, (4R,E)-4-methyl-6-oxa-3-aza-2(3,6)-imidazo[1,2-b]pyridazina-1(2,4)-pyridina-5(1,2)-benzenacyclooctaphane]
13 | < 3 | < 100 | < 5 | – | – | C[C@H]1Nc2ccc3ncc(n3n2)-c2cc(ccn2)OCc2ncc(F)cc21 [Example I-24, (R)-(E)-5^5-fluoro-6-methyl-3-oxa-7-aza-1(3,6)-imidazo[1,2-b]pyridazina-2(2,4), 5(2,3)-dipyridinacycloheptaphane]
14 | < 3 | 10.1 | < 5 | 1.7 | 0.12 | Fc1cnc2c(c1)[C@H]1C[C@H](F)CN1c1ccc3ncc(n3n1)-c1nccc(n1)CCO2 [Example I-88, (3^2R,3^4S,E)-3^4,4^5-difluoro-5-oxa-2(3,6)-imidazo[1,2-b]pyridazina-1(2,4)-pyrimidina-4(3,2)-pyridina-3(1,2)-pyrrolidinacycloheptaphane]
15 | < 3 | < 100 | < 5 | – | – | C[C@H]1Nc2ccc3ncc(n3n2)-c2cc(ccn2)COc2ccc(F)cc21 [Example I-14, (R)-(E)-5^4-fluoro-6-methyl-4-oxa-7-aza-1(3,6)-imidazo[1,2-b]pyridazina-2(2,4)-pyridina-5(1,2)-benzenacycloheptaphane]
16 | < 3 | 16.3 | < 5 | 1.5 | 0.22 | C[C@@H]1Cc2cc(ncn2)-c2cnc3ccc(nn23)N2C[C@@H](F)C[C@@H]2c2cc(F)ccc2O1 [Example I-98, (3^2R,3^4S,6R,E)-3^4,4^5-difluoro-6-methyl-5-oxa-2(3,6)-imidazo[1,2-b]pyridazina-1(4,6)-pyrimidina-3(1,2)-pyrrolidina-4(1,2)-benzenacycloheptaphane]
17 | < 3 | < 100 | < 5 | – | – | C[C@H]1Nc2ccc3ncc(n3n2)-c2cncc(c2)COc2ccc(F)cc21 [Example I-22, (R)-(E)-5^4-fluoro-6-methyl-4-oxa-7-aza-1(3,6)-imidazo[1,2-b]pyridazina-2(3,5)-pyridina-5(1,2)-benzenacycloheptaphane]
